What was measured:
Assay type in all cases: in vivo
[1] = system: Japanese bulrush (Scirpus juncoides Roxb.); experiment: Test Example 1: herbicidal effect by soil application to paddy field; conditions: paddy field soil application; active ingredient 1,000 g per 1 hectare; wettable powder added dropwise to water surface the day after sowing; examined on the 21st day after application
Outline: (§1)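 Plants were sown in flooded (3 cm) paddy soil and evaluated for herbicidal effect 21 days after soil application in a greenhouse.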

[2] = system: early watergrass (Echinochloa oryzicola Vasing); experiment: as above; conditions: paddy field soil application; active ingredient 1,000 g per 1 hectare; wettable powder added dropwise to water surface the day after sowing; examined on the 21st day after application
Outline: as §1

[3] = system: heartshape false pickerelweed (Monochoria vaginalis (Burm.f.) C.Presl); experiment: as above; conditions: paddy field soil application; active ingredient 1,000 g per 1 hectare; wettable powder added dropwise to water surface the day after sowing; examined on the 21st day after application
Outline: as §1

[4] = system: velvetleaf (Abutilon theophrasti medicus); experiment: Test Example 2: herbicidal effect by soil application to upland field; conditions: soil surface spray, upland field soil, 1,000 g active ingredient per hectare, 21st day after application
Outline: (§2)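 A standard visual rating of herbicidal effect, made 21 days after treatment, gives the value. Treatment consisted of a uniform spray of water-diluted wettable powder on the soil covering newly sown seeds, equivalent to 1,000 g active ingredient and 1,000 liters per hectare.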

[5] = system: green foxtail (Setaria viridis (L.) P. Beauv.); experiment: as above; conditions: soil surface spray, upland field soil, 1,000 g active ingredient per hectare, 21st day after application
Outline: as §2

[6] = system: barnyardgrass (Echinochloa crus-galli (L.) P. Beauv. var. crus-galli); experiment: as above; conditions: soil surface spray, upland field soil, 1,000 g active ingredient per hectare, 21st day after application
Outline: as §2

[7] = system: slender amaranth (Amaranthus viridis L.); experiment: as above; conditions: soil surface spray, upland field soil, 1,000 g active ingredient per hectare, 21st day after application
Outline: as §2

[8] = system: velvetleaf (Abutilon theophrasti medicus); experiment: Test Example 3: herbicidal effect by application to upland field (foliage treatment); conditions: foliage treatment, 1,000 g active ingredient per 1 hectare, 14th day after application, greenhouse
Outline: (§3)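 Plants were sown in field soil and raised in a greenhouse for two weeks before foliar spraying. A water-diluted wettable powder was applied at 1,000 g active ingredient per hectare in 1,000 liters per hectare. Herbicidal effect was scored on a standard scale 14 days later.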

[9] = system: green foxtail (Setaria viridis (L.) P. Beauv.); experiment: as above; conditions: foliage treatment, 1,000 g active ingredient per 1 hectare, 14th day after application, greenhouse
Outline: as §3

[10] = system: barnyardgrass (Echinochloa crus-galli (L.) P. Beauv. var. crus-galli); experiment: as above; conditions: foliage treatment, 1,000 g active ingredient per 1 hectare, 14th day after application, greenhouse
Outline: as §3

[11] = system: slender amaranth (Amaranthus viridis L.); experiment: as above; conditions: foliage treatment, 1,000 g active ingredient per 1 hectare, 14th day after application, greenhouse
Outline: as §3

| SMILES | herbicidal effect, Scirpus juncoides Roxb. [1] | herbicidal effect, Echinochloa oryzicola Vasing [2] | herbicidal effect, Monochoria vaginalis (Burm. f.) C. Presl [3] | herbicidal effect (index), Velvetleaf [4] | herbicidal effect (index), Green Foxtail [5] | herbicidal effect (index), Barnyardgrass [6] | herbicidal effect (index), Slender Amaranth [7] | herbicidal effect, Velvetleaf [8] | herbicidal effect, Green Foxtail [9] | herbicidal effect, Barnyardgrass [10] | herbicidal effect, Slender Amaranth [11] |
| --- | --- | --- | --- | --- | --- | --- | --- | --- | --- | --- | --- |
| CCn1ncc(C(=O)c2ccc(C(F)(F)F)n(CCOCCOC)c2=O)c1O [IV-203] | 5 (90% or more of herbicidal effect and crop phytotoxicity) | 5 (90% or more of herbicidal effect and crop phytotoxicity) | 5 (90% or more of herbicidal effect and crop phytotoxicity) | 5 (90% or more of herbicidal effect and crop phytotoxicity) | 5 (90% or more of herbicidal effect and crop phytotoxicity) | 5 (90% or more of herbicidal effect and crop phytotoxicity) | 5 (90% or more of herbicidal effect and crop phytotoxicity) | 5 (90% or more of herbicidal effect and crop phytotoxicity) | 5 (90% or more of herbicidal effect and crop phytotoxicity) | 5 (90% or more of herbicidal effect and crop phytotoxicity) | 5 (90% or more of herbicidal effect and crop phytotoxicity) |
| CCCS(=O)(=O)Oc1c(C(=O)c2ccc(C(F)(F)F)n(CCOCCOC)c2=O)cnn1CC [IV-204] | 5 (90% or more of herbicidal effect and crop phytotoxicity) | 5 (90% or more of herbicidal effect and crop phytotoxicity) | 5 (90% or more of herbicidal effect and crop phytotoxicity) | 5 (90% or more of herbicidal effect and crop phytotoxicity) | 5 (90% or more of herbicidal effect and crop phytotoxicity) | 5 (90% or more of herbicidal effect and crop phytotoxicity) | 5 (90% or more of herbicidal effect and crop phytotoxicity) | 5 (90% or more of herbicidal effect and crop phytotoxicity) | 5 (90% or more of herbicidal effect and crop phytotoxicity) | 5 (90% or more of herbicidal effect and crop phytotoxicity) | 5 (90% or more of herbicidal effect and crop phytotoxicity) |
| CCn1ncc(C(=O)c2ccc(C(F)(F)F)n(CC3CCCO3)c2=O)c1O (stereo not shown) [IV-205] | 5 (90% or more of herbicidal effect and crop phytotoxicity) | 5 (90% or more of herbicidal effect and crop phytotoxicity) | 5 (90% or more of herbicidal effect and crop phytotoxicity) | 5 (90% or more of herbicidal effect and crop phytotoxicity) | 5 (90% or more of herbicidal effect and crop phytotoxicity) | 5 (90% or more of herbicidal effect and crop phytotoxicity) | 5 (90% or more of herbicidal effect and crop phytotoxicity) | 5 (90% or more of herbicidal effect and crop phytotoxicity) | 5 (90% or more of herbicidal effect and crop phytotoxicity) | 5 (90% or more of herbicidal effect and crop phytotoxicity) | 5 (90% or more of herbicidal effect and crop phytotoxicity) |
| CC(C)n1ncc(C(=O)c2ccc(C(F)(F)F)n(C)c2=O)c1O [IV-219] | 5 (90% or more of herbicidal effect and crop phytotoxicity) | 5 (90% or more of herbicidal effect and crop phytotoxicity) | 5 (90% or more of herbicidal effect and crop phytotoxicity) | 5 (90% or more of herbicidal effect and crop phytotoxicity) | 3 (50 to less than 70% of herbicidal effect and crop phytotoxicity) | 5 (90% or more of herbicidal effect and crop phytotoxicity) | 5 (90% or more of herbicidal effect and crop phytotoxicity) | 5 (90% or more of herbicidal effect and crop phytotoxicity) | 3 (50 to less than 70% of herbicidal effect and crop phytotoxicity) | 5 (90% or more of herbicidal effect and crop phytotoxicity) | 5 (90% or more of herbicidal effect and crop phytotoxicity) |
| Cn1ncc(C(=O)c2ccc(Cl)n(C)c2=O)c1O [IV-243] | 5 (90% or more of herbicidal effect and crop phytotoxicity) | 5 (90% or more of herbicidal effect and crop phytotoxicity) | 5 (90% or more of herbicidal effect and crop phytotoxicity) | 5 (90% or more of herbicidal effect and crop phytotoxicity) | 3 (50 to less than 70% of herbicidal effect and crop phytotoxicity) | 5 (90% or more of herbicidal effect and crop phytotoxicity) | 5 (90% or more of herbicidal effect and crop phytotoxicity) | 5 (90% or more of herbicidal effect and crop phytotoxicity) | 4 (70 to less than 90% of herbicidal effect and crop phytotoxicity) | 5 (90% or more of herbicidal effect and crop phytotoxicity) | 5 (90% or more of herbicidal effect and crop phytotoxicity) |
